# Experimental data reported in patent US20220243230A1, “BIOCONVERSION OF 4-COUMARIC ACID TO RESVERATROL” (Conagen Inc., priority 2022, published 2022).
# System: yeast cultures
# Test: effect of 4-coumaric acid at different concentrations on yeast cultures
# Format: cell-based, S. cerevisiae
# Settings: strains CNFS109 and CNFS110, 48 hours, 30 °C, FIG. 1
# Protocol: The strains of Example 1 were tested in microcultures with 500 mg/L of 4-coumaric acid fed 24 hours post inoculation. CNFS109 and CNFS110 were inoculated into 50 ml of synthetic drop out medium without uracil (Sigma-Aldrich, St. Louis, Missouri) and incubated overnight under shaking conditions. Saturated culture was dispensed into individual wells in 24 well plates that contained 2 ml of synthetic drop out medium without uracil. 4-coumaric acid dissolved in acidified ethanol (20 g/L stock, in ethanol : water : HCl=50:49:1) was added to each well, to form media having 4-coumaric concentrations of 0 mg/L, 100 mg/L, 500 mg/L, 1000 mg/L, and 2000 mg/L, respectively. All experiments were performed in triplicate. The cultures were incubated under shaking for 48 hours (250 rpm, 30 ° C.).
# The bar graph of FIG. 1 illustrates the effect of 4-coumaric acid at different concentrations on yeast cultures. […] Due to the toxicity associated with high concentrations of 4-coumaric acid which inhibited yeast from growing and metabolizing, resveratrol bioconversion was only observed when 4-coumaric was added to the yeast culture at relatively lower concentrations (FIG. 2).
smiles,measurement,setting,value
O=C(O)/C=C/c1ccc(O)cc1 [4-coumaric acid],survival rate of yeast culture,1 g/L or 2 g/L added to the culture,declined
same,impact due to 4-coumaric acid toxicity on yeast cultures,concentration of up to 500 mg/L,little or no impact
